# Measured values from paper PMC9234961 (Journal of Medicinal Chemistry, 2022).
# Like-named read-outs stand apart in the source and are kept apart here.
# Legend:
# [1] = target: kinases (468) (Homo sapiens, UniProt P52333); conditions: JAK3(JH1domain-catalytic); 1000 nM
# [2] = target: kinases (468) (Homo sapiens, UniProt Q8TD08); conditions: ERK8 (MAPK15); 1000 nM
# [3] = target: kinases (468) (Homo sapiens, UniProt P14616); conditions: INSRR; 1000 nM
# [4] = target: kinases (468) (Homo sapiens, UniProt Q16584); conditions: MLK3 (MAP3K11); 1000 nM
# [5] = target: kinases (468) (Homo sapiens, UniProt P07949, V804L); conditions: kinase RET(V804L) (Entrez RET); compound concentration 1000 nM
# [6] = target: kinases (468) (Homo sapiens, UniProt P31152); conditions: ERK4 (MAPK4); 1000 nM
# [7] = target: kinases (468) (Homo sapiens, UniProt Q12851); conditions: MAP4K2; 1000 nM
# [8] = target: kinases (468) (Homo sapiens, UniProt Q9H0K1); conditions: kinase SIK2 (Entrez SIK2); compound concentration 1000 nM
# [9] = target: kinases (468) (Homo sapiens, UniProt P51817); conditions: PRKX; 1000 nM
# [10] = target: kinases (468) (Homo sapiens, UniProt Q16539); conditions: p38-alpha (MAPK14); 1000 nM
# [11] = target: kinases (468) (Homo sapiens, UniProt P36896); conditions: ACVR1B; 1000 nM
# [12] = target: kinases (468) (Homo sapiens, UniProt Q08345); conditions: DDR1; 1000 nM
# [13] = target: kinases (468) (Homo sapiens, UniProt P16234); conditions: PDGFRA; 1000 nM
# [14] = target: kinases (468) (Homo sapiens, UniProt Q96Q40); conditions: PFTAIRE2 (CDK15); 1000 nM
# [15] = target: kinases (468) (Homo sapiens, UniProt P42336, C420R); conditions: PIK3CA(C420R); 1000 nM
# [16] = target: kinases (468) (Homo sapiens, UniProt Q99640); conditions: PKMYT1; 1000 nM
# [17] = target: kinases (468) (Homo sapiens, UniProt P30291); conditions: kinase WEE1 (Entrez WEE1); compound concentration 1000 nM
# [18] = target: kinases (468) (Homo sapiens, UniProt P00519, Y253F); conditions: ABL1(Y253F)-phosphorylated; 1000 nM
# [19] = target: kinases (468) (Homo sapiens, UniProt P23458); conditions: 1000 nM
# [20] = target: kinases (468) (Homo sapiens, UniProt O14920); conditions: IKK-beta (IKBKB); 1000 nM
# [21] = target: kinases (468) (Homo sapiens, UniProt P54646); conditions: AMPK-alpha2 (PRKAA2); 1000 nM
# [22] = target: kinases (468) (Homo sapiens, UniProt P54753); conditions: EPHB3; 1000 nM
# [23] = target: kinases (468) (Homo sapiens, UniProt Q05397); conditions: FAK (PTK2); 1000 nM
# [24] = target: kinases (468) (Homo sapiens, UniProt Q96RR4); conditions: CAMKK2; 1000 nM
# [25] = target: kinases (468) (Homo sapiens, UniProt P10721, T670I/V559D); conditions: KIT(V559D,T670I); 1000 nM
# [26] = target: kinases (468) (Homo sapiens, UniProt Q9NY57); conditions: kinase YANK2 (Entrez STK32B); compound concentration 1000 nM
# [27] = target: kinases (468) (Homo sapiens, UniProt O60285); conditions: ARK5 (NUAK1); 1000 nM
# [28] = target: kinases (468) (Plasmodium falciparum, UniProt P61075); conditions: PFPK5(P.falciparum) (MAL13P1.279); 1000 nM
# [29] = target: kinases (468) (Homo sapiens, UniProt O94806); conditions: PRKD3; 1000 nM
# [30] = target: kinases (468) (Homo sapiens, UniProt Q8IU85); conditions: CAMK1D; 1000 nM
# [31] = target: kinases (468) (Homo sapiens, UniProt Q15759); conditions: p38-beta (MAPK11); 1000 nM
# [32] = target: kinases (468) (Homo sapiens, UniProt P29317); conditions: EPHA2; 1000 nM
# [33] = target: kinases (468) (Homo sapiens, UniProt Q13523); conditions: PRP4 (PRPF4B); 1000 nM
# [34] = target: kinases (468) (Homo sapiens, UniProt P36507); conditions: MEK2 (MAP2K2); 1000 nM
# kinases (468) (Homo sapiens, UniProt P23458), sequence (P23458 whole entry): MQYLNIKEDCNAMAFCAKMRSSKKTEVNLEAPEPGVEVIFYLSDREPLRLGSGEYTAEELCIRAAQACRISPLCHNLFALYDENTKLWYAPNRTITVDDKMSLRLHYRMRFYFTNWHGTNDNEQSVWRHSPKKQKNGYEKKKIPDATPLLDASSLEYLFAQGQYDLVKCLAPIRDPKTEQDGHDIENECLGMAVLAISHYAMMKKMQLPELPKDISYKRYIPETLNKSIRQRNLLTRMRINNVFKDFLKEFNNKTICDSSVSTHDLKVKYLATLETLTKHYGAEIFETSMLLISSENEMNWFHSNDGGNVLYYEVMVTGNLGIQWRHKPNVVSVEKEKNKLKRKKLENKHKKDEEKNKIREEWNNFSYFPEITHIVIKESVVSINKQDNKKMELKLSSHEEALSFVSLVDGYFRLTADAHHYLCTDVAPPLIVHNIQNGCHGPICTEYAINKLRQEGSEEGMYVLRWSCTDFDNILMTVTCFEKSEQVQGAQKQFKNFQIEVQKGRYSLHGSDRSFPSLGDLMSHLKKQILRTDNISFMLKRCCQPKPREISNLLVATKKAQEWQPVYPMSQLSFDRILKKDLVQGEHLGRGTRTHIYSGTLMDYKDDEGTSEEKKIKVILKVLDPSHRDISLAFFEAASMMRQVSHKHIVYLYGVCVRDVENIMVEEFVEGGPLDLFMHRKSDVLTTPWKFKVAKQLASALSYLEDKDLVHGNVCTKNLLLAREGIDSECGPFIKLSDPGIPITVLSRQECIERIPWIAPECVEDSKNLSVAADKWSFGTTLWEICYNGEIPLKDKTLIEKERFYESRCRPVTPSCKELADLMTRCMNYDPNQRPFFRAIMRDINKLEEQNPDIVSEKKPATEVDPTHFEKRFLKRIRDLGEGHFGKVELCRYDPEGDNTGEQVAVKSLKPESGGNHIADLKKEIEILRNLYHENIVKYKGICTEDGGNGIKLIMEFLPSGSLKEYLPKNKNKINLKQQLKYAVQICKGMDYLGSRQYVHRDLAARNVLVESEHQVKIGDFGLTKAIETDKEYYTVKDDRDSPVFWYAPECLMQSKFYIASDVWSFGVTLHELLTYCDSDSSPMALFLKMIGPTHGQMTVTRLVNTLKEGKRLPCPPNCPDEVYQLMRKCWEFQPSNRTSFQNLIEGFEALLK
# kinases (468) (Homo sapiens, UniProt P54646), sequence (P54646 whole entry): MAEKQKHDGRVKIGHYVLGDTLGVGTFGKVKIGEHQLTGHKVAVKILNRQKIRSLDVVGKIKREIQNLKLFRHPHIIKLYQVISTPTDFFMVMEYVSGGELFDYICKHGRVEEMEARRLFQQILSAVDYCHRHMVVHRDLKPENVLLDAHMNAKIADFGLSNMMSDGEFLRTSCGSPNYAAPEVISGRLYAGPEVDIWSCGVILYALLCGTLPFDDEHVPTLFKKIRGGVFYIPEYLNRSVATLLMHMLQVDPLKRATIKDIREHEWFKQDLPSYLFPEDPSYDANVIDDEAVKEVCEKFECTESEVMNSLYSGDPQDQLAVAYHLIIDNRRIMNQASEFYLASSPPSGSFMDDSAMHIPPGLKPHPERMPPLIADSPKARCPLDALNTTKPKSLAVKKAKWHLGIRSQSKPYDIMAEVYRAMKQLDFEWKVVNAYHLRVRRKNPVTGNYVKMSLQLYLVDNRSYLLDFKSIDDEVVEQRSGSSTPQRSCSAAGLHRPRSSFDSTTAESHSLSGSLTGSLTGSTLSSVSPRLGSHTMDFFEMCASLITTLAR
# kinases (468) (Homo sapiens, UniProt Q8IU85), sequence (Q8IU85 whole entry): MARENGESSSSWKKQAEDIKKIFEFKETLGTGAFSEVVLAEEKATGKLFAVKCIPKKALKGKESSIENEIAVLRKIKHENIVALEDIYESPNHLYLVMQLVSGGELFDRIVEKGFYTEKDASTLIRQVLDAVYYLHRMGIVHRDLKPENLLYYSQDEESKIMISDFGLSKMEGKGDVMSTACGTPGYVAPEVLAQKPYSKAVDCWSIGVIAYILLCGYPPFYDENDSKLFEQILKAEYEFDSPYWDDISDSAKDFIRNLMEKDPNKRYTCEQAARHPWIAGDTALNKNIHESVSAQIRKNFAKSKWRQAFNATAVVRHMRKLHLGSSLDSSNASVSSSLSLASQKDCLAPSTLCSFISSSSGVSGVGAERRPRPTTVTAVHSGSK
# kinases (468) (Homo sapiens, UniProt Q96Q40), sequence (Q96Q40 whole entry): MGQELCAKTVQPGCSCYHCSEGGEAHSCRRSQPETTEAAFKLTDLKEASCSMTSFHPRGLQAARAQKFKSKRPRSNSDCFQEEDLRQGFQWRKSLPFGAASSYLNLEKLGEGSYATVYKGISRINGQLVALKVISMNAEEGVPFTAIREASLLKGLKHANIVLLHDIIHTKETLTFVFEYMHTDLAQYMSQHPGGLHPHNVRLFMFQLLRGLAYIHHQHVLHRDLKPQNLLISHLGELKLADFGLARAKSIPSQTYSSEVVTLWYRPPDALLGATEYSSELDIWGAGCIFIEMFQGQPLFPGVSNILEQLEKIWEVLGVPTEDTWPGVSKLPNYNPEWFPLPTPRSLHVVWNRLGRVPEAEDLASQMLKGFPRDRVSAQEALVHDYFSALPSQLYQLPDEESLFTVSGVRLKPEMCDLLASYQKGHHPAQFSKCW
# kinases (468) (Homo sapiens, UniProt Q99640), sequence (Q99640 whole entry): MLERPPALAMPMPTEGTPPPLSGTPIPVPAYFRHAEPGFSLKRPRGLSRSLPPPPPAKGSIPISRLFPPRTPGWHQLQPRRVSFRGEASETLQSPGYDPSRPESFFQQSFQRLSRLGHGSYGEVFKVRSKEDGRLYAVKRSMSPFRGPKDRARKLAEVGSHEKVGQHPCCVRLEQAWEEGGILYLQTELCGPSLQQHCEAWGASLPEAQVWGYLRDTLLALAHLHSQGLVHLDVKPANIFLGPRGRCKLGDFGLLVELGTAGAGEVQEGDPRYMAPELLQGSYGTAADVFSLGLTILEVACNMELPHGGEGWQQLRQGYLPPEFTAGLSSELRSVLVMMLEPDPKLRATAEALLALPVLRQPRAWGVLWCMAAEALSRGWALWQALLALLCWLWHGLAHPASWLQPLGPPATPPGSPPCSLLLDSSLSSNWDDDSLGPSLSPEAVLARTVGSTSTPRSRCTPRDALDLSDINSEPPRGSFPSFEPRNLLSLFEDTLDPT
# kinases (468) (Homo sapiens, UniProt P10721, T670I/V559D), sequence (P10721 26-976 V559D/T670I): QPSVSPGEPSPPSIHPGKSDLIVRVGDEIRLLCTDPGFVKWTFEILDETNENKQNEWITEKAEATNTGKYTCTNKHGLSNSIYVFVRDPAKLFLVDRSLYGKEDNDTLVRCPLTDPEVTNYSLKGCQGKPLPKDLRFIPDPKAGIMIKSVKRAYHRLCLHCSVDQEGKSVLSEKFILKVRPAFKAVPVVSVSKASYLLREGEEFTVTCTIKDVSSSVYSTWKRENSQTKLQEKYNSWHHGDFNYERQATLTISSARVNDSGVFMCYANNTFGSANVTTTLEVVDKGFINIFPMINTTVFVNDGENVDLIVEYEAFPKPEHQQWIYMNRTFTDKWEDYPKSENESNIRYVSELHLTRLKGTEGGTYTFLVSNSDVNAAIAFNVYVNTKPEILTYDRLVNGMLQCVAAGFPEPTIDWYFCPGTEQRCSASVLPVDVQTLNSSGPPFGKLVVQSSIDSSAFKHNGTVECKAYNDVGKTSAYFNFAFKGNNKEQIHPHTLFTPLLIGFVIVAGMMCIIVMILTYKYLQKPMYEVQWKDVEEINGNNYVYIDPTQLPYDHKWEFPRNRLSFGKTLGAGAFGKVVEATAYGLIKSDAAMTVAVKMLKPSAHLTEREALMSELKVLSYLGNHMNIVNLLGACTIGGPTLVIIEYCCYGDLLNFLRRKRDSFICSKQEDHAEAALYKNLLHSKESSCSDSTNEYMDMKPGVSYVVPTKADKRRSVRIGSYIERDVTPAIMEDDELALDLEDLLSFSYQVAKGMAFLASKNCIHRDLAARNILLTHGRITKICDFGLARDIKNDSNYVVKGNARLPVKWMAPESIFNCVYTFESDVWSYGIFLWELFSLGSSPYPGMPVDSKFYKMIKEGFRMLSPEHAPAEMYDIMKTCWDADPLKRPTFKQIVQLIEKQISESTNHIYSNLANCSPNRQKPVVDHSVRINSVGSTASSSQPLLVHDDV
# kinases (468) (Homo sapiens, UniProt O14920), sequence (O14920 whole entry): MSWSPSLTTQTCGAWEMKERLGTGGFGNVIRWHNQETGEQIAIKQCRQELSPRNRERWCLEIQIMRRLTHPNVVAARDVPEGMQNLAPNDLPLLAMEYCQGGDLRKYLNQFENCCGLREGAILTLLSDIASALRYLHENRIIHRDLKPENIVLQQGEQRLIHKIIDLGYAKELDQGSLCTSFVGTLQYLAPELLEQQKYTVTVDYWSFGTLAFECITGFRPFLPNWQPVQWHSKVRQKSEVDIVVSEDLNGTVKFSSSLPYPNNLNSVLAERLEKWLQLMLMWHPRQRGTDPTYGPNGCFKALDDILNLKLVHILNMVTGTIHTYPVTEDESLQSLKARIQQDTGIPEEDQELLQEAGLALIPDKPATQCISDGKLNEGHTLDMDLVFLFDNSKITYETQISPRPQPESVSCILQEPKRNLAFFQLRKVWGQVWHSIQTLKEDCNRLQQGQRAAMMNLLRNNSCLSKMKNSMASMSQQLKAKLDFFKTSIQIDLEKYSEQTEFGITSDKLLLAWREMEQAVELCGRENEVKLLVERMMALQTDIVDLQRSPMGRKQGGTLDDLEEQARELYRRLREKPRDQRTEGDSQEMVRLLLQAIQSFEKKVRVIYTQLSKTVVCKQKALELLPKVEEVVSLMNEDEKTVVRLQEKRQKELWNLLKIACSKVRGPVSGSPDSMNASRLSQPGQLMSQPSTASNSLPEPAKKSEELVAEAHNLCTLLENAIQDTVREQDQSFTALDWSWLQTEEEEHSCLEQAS
# kinases (468) (Plasmodium falciparum, UniProt P61075), sequence (P61075 whole entry): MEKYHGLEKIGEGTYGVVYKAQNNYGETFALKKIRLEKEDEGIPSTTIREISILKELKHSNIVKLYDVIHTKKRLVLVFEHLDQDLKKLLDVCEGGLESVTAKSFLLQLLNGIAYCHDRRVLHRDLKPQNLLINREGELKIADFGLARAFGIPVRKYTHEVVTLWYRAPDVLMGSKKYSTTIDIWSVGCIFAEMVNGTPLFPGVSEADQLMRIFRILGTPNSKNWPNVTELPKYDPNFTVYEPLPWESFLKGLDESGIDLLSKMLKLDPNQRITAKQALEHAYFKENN
structure (smiles),measurement,setting,value
C[C@H]1C[C@@H](O)CN(c2ncc(Cl)c(Nc3ccc4c(c3)c3c(c(=O)n4C)OCC(F)(F)[C@H](C4CC4)N3)n2)C1 [CCT373566_9A],Percent Control,[1],78%
same,Percent Control,[2],95%
same,Percent Control,[3],100%
same,Percent Control,[4],100%
same,Percent Control,[5],100%
same,Percent Control,[6],100%
same,Percent Control,[7],99%
same,Percent Control,[8],98%
same,Percent Control,[9],100%
same,Percent Control,[10],96%
same,Percent Control,[11],100%
same,Percent Control,[12],100%
same,Percent Control,[13],95%
same,Percent Control,[14],98%
same,Percent Control,[15],93%
same,Percent Control,[16],100%
same,Percent Control,[17],89%
same,Percent Control,[18],91%
same,Percent Control,[19]; JAK1(JH1domain-catalytic),100%
same,Percent Control,[19]; JAK1(JH2domain-pseudokinase),90%
same,Percent Control,[20],91%
same,Percent Control,[21],100%
same,Percent Control,[22],100%
same,Percent Control,[23],96%
same,Percent Control,[24],88%
same,Percent Control,[25],98%
same,Percent Control,[26],90%
same,Percent Control,[27],98%
same,Percent Control,[28],89%
same,Percent Control,[29],75%
same,Percent Control,[30],92%
same,Percent Control,[31],100%
same,Percent Control,[32],99%
same,Percent Control,[33],94%
same,Percent Control,[34],79%
